Values quoted from earlier work as cited in US20240287089A1, “Preparation and Uses of 7-Azaindenoisoquinolines” (Purdue Research Foundation, priority 0001, published 2024).

Key:
MCF7 (Breast) = conditions: reference 20, read-out: Cytotoxicity GI50; cited from earlier work
[1] = dogs, same time points; cited from earlier work
HCT-116 (Colon) = conditions: Colon HCT-116; reference 20; read-out: Cytotoxicity GI50; cited from earlier work

COc1cc2c3c(n(CCCNCCO)c(=O)c2cc1OC)-c1cc2c(cc1C3=O)OCO2 [LMP744]
GI50 (MCF7 (Breast)): 790 nM
mean tumor concentration relative to plasma concentration [1]: at least 100 times
GI50 (HCT-116 (Colon)): 100 nM
